In US20210115104A1, “AMYLIN ANALOGUES” (Zealand Pharma A/S, priority 2015, published 2021):
*1 amine or outer side, *2 acyl side, *3 side chain or, on linkers, in order; H or OH if unused. Where a SMILES comes first, the peptide text is derived from it. Bridges are numbered along the chain shown (N, C = ends). [ ]: non-standard residue; d: D form. The star is where a group is joined. C20 diacid = O=C(O)CCCCCCCCCCCCCCCCCCC(=O)*; γGlu = O=C(O)[C@H](CCC(=O)[*:2])N[*:1]; NMeI = CC[C@H](C)[C@H](NC)C(=O)O; Sar = CNCC(=O)O

Each compound was assayed against T1, human amylin receptor 3 (hAMYR3), hCTR2 co-expressed with hRAMP3 (Homo sapiens, UniProt O60896+P30988) (assay: hAMYR3 cAMP assay (AlphaScreen) in COS7 cells). Details: cAMP induction, COS7 cells expressing hAMYR3; Table 1; read-out: hAMYR3 EC50.
T1 construct: expressed in transfected cells
T1 sequence (P30988 25-474): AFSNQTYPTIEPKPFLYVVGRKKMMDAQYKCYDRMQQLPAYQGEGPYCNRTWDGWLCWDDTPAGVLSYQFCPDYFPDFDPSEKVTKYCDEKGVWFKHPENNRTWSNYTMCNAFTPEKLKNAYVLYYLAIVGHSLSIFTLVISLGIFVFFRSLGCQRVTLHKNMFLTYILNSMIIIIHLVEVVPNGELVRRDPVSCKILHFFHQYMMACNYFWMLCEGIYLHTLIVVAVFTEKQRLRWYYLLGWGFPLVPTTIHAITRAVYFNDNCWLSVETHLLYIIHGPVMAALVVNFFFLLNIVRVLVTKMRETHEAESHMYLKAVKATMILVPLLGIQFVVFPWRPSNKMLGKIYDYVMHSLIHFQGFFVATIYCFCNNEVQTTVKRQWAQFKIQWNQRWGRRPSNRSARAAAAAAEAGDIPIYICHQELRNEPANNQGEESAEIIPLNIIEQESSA
T1 sequence (O60896 24-148 partner): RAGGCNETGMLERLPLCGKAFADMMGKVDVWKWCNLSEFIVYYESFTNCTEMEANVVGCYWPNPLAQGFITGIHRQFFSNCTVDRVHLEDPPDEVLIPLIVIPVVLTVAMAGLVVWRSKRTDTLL
Type: cell-based
From the text: The cell line COS7, originating from African Green Monkey kidney fibroblast cells, was used for establishment of the stable cell lines described below. The COS7 cellular background was used due to it being RAMP naïve, and as such it provides the best available system for testing of the monomeric hCTR and different heterodimeric amylin receptor subtypes functionally generated by introduction of the individual RAMPs.
A cell line expressing the human amylin receptor 3 (hAMYR3) was generated in the COS7 cellular background as stable clones. In brief, hCTR2 (GI:4502547) and hRAMP3 (GI:118572586) were amplified by PCR using primers encoding terminal restriction sites for subcloning. The 5′-end primers additionally encoded a near Kozak consensus sequence to ensure efficient translation. The fidelity of the DNA encoding the receptor was confirmed by DNA sequencing. The PCR products encoding the receptor were subcloned into a proprietary tri-cistronic mammalian expression vector with RAMP3, hCTR2 and neomycin (G418) resistance marker. The mammalian expression vector encoding the receptor was transfected into COS7 cells by a standard liposome transfection method. 48 hours post-transfection, cells were seeded for limited dilution cloning and selected with 1 mg/ml G418 in the culture medium. After 3 weeks, surviving colonies of hAMY3R-expressing cells were picked, propagated and tested in the amylin efficacy assay as described in Example 3 below. The functional generation of the amylin receptor phenotype was verified in the efficacy assay by a left-shifted efficacy response to amylin relative to monomeric calcitonin receptor, and one hAMYR3-expressing clone was chosen for compound profiling.
In vitro activity of test peptides at the hCTR2 and hAMYR3 receptors was assessed by measuring the induction of cAMP following stimulation of the receptor using the AlphaScreen® cAMP Assay kit from Perkin-Elmer.
Briefly, COS7 cells expressing hCTR2 (see Example 2, above) were seeded at 30-40,000 cells per well in 96-well microtiter plates coated with 0.01% poly-L-lysine, and grown for 1 day in culture in 100 μl growth medium [DMEM, 10% FCS, Penicillin (100 IU/ml), Streptomycin (100 μg/ml)]. On the day of analysis, growth medium was removed and the cells were washed once with 200 μl Tyrode buffer [Tyrode's Salts (9.6 g/I), 10 mM HEPES, pH 7.4]. Cells were incubated in 100 μl Tyrode buffer containing increasing concentrations of test peptides, 100 µM IBMX and 0.1% casein for 15 min at 37° C. The reaction was stopped by carefully decanting off the compound/buffer medium and replacing it with lysis/detection buffer (80 μl 0.1% w/v BSA, 5 mM HEPES, 0.3% v/v Tween-20 in deionized water). After incubation at room temperature for 10 min., the cAMP content of the resulting cell lysate was estimated according to the AlphaScreen® cAMP Assay manufacturer's instructions. EC50 values were estimated by computer-aided curve fitting using the 4-parameter logistic (4PL) non-linear model.

| EC50 [nM] | SMILES |
| --- | --- |
| 0.13 | CC[C@H](C)[C@@H](C(=O)N[C@@H](CC(C)C)C(=O)N[C@@H](CO)C(=O)N[C@@H](CO)C(=O)N[C@H](C(=O)N[C@@H](CC(=O)O)C(=O)N[C@H](C(=O)NCC(=O)N[C@@H](CO)C(=O)N[C@@H](CC(=O)O)C(=O)N[C@H](C(=O)N1CCC[C@H]1C(N)=O)[C@@H](C)O)C(C)C)[C@@H](C)O)N(C)C(=O)[C@H](C)NC(=O)CN(C)C(=O)[C@H](Cc1ccccc1)NC(=O)[C@H](CO)NC(=O)[C@H](CO)NC(=O)[C@H](CCCNC(=N)N)NC(=O)[C@@H](NC(=O)[C@H](CC(C)C)NC(=O)[C@H](Cc1ccccc1)NC(=O)[C@H](Cc1c[nH]cn1)NC(=O)[C@H](C)NC(=O)[C@H](CC(C)C)NC(=O)[C@H](CCCNC(=N)N)NC(=O)[C@H](CC(=O)O)NC(=O)[C@@H](NC(=O)[C@H](C)NC(=O)[C@@H]1CSSC[C@H](NC(=O)[C@H](CCCNC(=N)N)NC(=O)CC[C@H](NC(=O)CCCCCCCCCCCCCCCCCCC(=O)O)C(=O)O)C(=O)N2CCC[C@H]2C(=O)N[C@@H]([C@@H](C)O)C(=O)N[C@@H](C)C(=O)N[C@@H]([C@@H](C)O)C(=O)N1)[C@@H](C)O)C(C)C [Compound 23, [19CD]-isoGlu-R-C( )-PTAT-C( )-ATDRLAHFLVRSSF-Gly(Me)-A-Ile(Me)-LSSTDVGSDTP-NH2] ({C20 diacid-γGlu}-RCPTATCATDRLAHFLVRSSF[Sar]A[NMeI]LSSTDVGSDTP-NH2; disulfide 2-7) |
| 0.094 | CC[C@H](C)[C@@H](C(=O)N[C@@H](CC(C)C)C(=O)N[C@@H](CO)C(=O)N[C@@H](CO)C(=O)N[C@H](C(=O)N[C@@H](CC(=O)O)C(=O)N[C@H](C(=O)NCC(=O)N[C@@H](CO)C(=O)N[C@@H](CC(N)=O)C(=O)N[C@H](C(=O)N1CCC[C@H]1C(N)=O)[C@@H](C)O)C(C)C)[C@@H](C)O)N(C)C(=O)[C@H](C)NC(=O)CN(C)C(=O)[C@H](Cc1ccccc1)NC(=O)[C@H](CO)NC(=O)[C@H](CO)NC(=O)[C@H](CCCNC(=N)N)NC(=O)[C@H](Cc1c[nH]cn1)NC(=O)[C@H](CC(C)C)NC(=O)[C@H](Cc1ccccc1)NC(=O)[C@H](Cc1c[nH]cn1)NC(=O)[C@H](C)NC(=O)[C@H](CC(C)C)NC(=O)[C@H](CCCNC(=N)N)NC(=O)[C@H](CC(=O)O)NC(=O)[C@@H](NC(=O)[C@H](C)NC(=O)[C@@H]1CSSC[C@H](NC(=O)[C@H](CCCNC(=N)N)NC(=O)CC[C@H](NC(=O)CCCCCCCCCCCCCCCCCCC(=O)O)C(=O)O)C(=O)N2CCC[C@H]2C(=O)N[C@@H]([C@@H](C)O)C(=O)N[C@@H](C)C(=O)N[C@@H]([C@@H](C)O)C(=O)N1)[C@@H](C)O [Compound 25, [19CD]-isoGlu-R-C( )-PTAT-C( )-ATDRLAHFLHRSSF-Gly(Me)-A-Ile(Me)-LSSTDVGSNTP-NH2] ({C20 diacid-γGlu}-RCPTATCATDRLAHFLHRSSF[Sar]A[NMeI]LSSTDVGSNTP-NH2; disulfide 2-7) |
| 0.12 | CC[C@H](C)[C@@H](C(=O)N[C@@H](CC(C)C)C(=O)N[C@@H](CO)C(=O)N[C@@H](CO)C(=O)N[C@H](C(=O)N[C@@H](CCC(=O)O)C(=O)N[C@H](C(=O)NCC(=O)N[C@@H](CO)C(=O)N[C@@H](CCC(=O)O)C(=O)N[C@H](C(=O)N1CCC[C@H]1C(N)=O)[C@@H](C)O)C(C)C)[C@@H](C)O)N(C)C(=O)[C@H](C)NC(=O)CN(C)C(=O)[C@H](Cc1ccccc1)NC(=O)[C@H](CO)NC(=O)[C@H](CO)NC(=O)[C@H](CCCNC(=N)N)NC(=O)[C@H](Cc1c[nH]cn1)NC(=O)[C@H](CC(C)C)NC(=O)[C@H](Cc1ccccc1)NC(=O)[C@H](Cc1c[nH]cn1)NC(=O)[C@H](C)NC(=O)[C@H](CC(C)C)NC(=O)[C@H](CCCNC(=N)N)NC(=O)[C@H](CCC(=O)O)NC(=O)[C@@H](NC(=O)[C@H](C)NC(=O)[C@@H]1CSSC[C@H](NC(=O)[C@H](CCCNC(=N)N)NC(=O)CC[C@H](NC(=O)CCCCCCCCCCCCCCCCCCC(=O)O)C(=O)O)C(=O)NCC(=O)N[C@@H]([C@@H](C)O)C(=O)N[C@@H](C)C(=O)N[C@@H]([C@@H](C)O)C(=O)N1)[C@@H](C)O [Compound 26, [19CD]-isoGlu-R-C( )-GTAT-C( )-ATERLAHFLHRSSF-Gly(Me)-A-Ile(Me)-LSSTEVGSETP-NH2] ({C20 diacid-γGlu}-RCGTATCATERLAHFLHRSSF[Sar]A[NMeI]LSSTEVGSETP-NH2; disulfide 2-7) |
